The record followed here is ChEMBL document CHEMBL1909046, “DrugMatrix in vitro pharmacology data”.

The target of series [1] is T1, Type-2 angiotensin II receptor (Homo sapiens, UniProt P50052). Note: in other assays of this panel Not Active means under 50% inhibition at 10 µM.
T1 sequence (P50052 whole entry): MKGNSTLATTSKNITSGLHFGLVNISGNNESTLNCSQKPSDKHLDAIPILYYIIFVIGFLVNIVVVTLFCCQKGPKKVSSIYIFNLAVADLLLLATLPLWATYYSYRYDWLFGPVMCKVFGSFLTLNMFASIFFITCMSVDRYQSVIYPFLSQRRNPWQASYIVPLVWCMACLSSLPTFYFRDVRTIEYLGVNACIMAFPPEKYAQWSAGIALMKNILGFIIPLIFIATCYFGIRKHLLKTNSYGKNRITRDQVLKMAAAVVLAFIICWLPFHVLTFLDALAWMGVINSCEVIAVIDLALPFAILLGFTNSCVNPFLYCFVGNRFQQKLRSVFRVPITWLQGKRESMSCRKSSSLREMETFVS
The class given is cell-based. The note with it: cho-k1.

The target in series [2] is T2, Alpha-1D adrenergic receptor (Homo sapiens, UniProt P25100). Note: in other assays of this panel Not Active means under 50% inhibition at 10 µM.
T2 sequence (P25100 whole entry): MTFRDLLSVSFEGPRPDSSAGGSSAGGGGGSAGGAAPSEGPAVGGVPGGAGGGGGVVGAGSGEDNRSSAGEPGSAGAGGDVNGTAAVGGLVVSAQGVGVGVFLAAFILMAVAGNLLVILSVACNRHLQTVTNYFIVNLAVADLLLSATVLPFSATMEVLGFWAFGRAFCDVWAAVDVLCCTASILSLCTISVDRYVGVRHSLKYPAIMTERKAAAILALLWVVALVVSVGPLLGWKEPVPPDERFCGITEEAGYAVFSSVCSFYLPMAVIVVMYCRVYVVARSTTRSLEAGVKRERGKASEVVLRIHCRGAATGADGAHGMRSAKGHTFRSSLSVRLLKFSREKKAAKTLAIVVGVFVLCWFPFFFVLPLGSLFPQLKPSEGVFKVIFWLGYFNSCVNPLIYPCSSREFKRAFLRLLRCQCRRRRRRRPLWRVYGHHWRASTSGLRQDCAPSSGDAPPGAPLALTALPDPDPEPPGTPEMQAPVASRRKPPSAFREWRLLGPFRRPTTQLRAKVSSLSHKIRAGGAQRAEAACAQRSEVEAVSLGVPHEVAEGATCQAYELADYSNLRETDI
The class given is cell membranes, HEK293, Membrane.

Another series has as its target T3, Caspase-1 (Homo sapiens, UniProt P29466).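 Note: Caspase-1 enzyme inhibition assay with a peptide substrate; in other assays of this panel Not Active means under 50% inhibition at 10 µM.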
T3 sequence (P29466 whole entry): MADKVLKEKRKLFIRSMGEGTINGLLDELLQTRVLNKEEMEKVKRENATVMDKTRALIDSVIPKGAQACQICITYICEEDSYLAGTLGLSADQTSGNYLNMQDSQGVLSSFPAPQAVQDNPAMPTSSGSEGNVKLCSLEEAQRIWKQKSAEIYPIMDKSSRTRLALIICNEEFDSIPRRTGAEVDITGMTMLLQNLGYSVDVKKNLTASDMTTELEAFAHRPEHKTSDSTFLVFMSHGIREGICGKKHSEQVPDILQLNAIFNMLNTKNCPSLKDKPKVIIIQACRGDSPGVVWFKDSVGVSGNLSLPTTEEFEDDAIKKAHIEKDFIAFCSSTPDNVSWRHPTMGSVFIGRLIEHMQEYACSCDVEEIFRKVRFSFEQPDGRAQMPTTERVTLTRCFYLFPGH
Also noted: species or system Escherichia coli.

Series [3] can be described thus: DRUGMATRIX: Phorbol Ester radioligand binding (ligand: [3H] PDBu). In kind it is cell membranes, Mus musculus, ICR, Brain, Membrane. The settings on record: Not Active = under 50% inhibition at 10 µM.
Series [4] can be described thus: DRUGMATRIX: Phosphodiesterase PDE3 enzyme inhibition (substrate: [3H]cAMP + cAMP). The note with it: platelet; Not Active = under 50% inhibition at 10 µM. In kind it is tissue-based, Homo sapiens.
For series [5], the target named is Kappa-type opioid receptor (Homo sapiens, UniProt P41145). Briefly: DRUGMATRIX: Opiate kappa (OP2, KOP) radioligand binding (ligand: [3H] Diprenorphine). The note with it: hek293; Not Active = under 50% inhibition at 10 µM. In kind it is cell membranes, HEK293, Membrane.
A short description of series [6]: DRUGMATRIX: Glutamate, NMDA, Agonism radioligand binding (ligand: [3H] CGP-39653). The class given is cell membranes, Rattus norvegicus, Wistar, Cerebral cortex, Membrane. The settings on record: Not Active = under 50% inhibition at 10 µM.
For series [7], the target named is T4, Nitric oxide synthase, inducible (Mus musculus, UniProt P29477).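 Note: inhibition of iNOS enzyme activity measured with L-arginine as substrate; in other assays of this panel Not Active means under 50% inhibition at 10 µM.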
T4 sequence (P29477 whole entry): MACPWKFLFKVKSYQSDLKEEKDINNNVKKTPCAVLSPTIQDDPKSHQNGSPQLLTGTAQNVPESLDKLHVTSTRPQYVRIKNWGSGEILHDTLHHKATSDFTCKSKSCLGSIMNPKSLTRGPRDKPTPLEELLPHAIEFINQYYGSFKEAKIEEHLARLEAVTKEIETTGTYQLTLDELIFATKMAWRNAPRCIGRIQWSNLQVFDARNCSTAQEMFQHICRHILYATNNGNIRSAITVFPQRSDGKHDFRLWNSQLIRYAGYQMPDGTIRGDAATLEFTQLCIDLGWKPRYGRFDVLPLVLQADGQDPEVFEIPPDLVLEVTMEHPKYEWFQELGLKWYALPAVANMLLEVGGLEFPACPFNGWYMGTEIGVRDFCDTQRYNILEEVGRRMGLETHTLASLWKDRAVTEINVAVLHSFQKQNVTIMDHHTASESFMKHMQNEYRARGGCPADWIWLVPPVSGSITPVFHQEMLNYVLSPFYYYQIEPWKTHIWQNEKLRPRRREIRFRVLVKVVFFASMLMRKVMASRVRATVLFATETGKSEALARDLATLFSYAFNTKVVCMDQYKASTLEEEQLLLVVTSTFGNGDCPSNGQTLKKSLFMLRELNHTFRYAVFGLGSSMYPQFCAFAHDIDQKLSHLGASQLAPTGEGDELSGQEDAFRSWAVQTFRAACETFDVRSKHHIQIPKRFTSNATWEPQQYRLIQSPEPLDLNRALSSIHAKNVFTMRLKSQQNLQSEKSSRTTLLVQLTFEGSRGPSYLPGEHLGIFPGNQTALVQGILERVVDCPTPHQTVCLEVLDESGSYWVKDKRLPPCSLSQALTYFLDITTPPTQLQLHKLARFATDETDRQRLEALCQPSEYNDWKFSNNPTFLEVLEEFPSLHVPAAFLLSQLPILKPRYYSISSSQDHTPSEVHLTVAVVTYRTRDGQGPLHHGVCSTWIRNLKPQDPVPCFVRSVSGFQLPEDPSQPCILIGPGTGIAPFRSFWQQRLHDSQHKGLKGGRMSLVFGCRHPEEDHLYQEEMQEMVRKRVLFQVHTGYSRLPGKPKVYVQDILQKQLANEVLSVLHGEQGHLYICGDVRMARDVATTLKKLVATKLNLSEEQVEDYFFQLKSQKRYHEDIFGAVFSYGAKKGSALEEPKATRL
Also on record: species or system Escherichia coli.

The target of the next series is Cytochrome P450 2C9 (Homo sapiens, UniProt P11712). The note with it: bti-tn-5b1-4. Note: in other assays of this panel Not Active means under 50% inhibition at 10 µM.

Structures are written as SMILES.

One may read the IC50 as the concentration that gives 50% inhibition. Usually Ki stands for a measure of affinity in units of concentration, obtained from inhibition or displacement.

Sequence of Cytochrome P450 2C9 (P11712 whole entry): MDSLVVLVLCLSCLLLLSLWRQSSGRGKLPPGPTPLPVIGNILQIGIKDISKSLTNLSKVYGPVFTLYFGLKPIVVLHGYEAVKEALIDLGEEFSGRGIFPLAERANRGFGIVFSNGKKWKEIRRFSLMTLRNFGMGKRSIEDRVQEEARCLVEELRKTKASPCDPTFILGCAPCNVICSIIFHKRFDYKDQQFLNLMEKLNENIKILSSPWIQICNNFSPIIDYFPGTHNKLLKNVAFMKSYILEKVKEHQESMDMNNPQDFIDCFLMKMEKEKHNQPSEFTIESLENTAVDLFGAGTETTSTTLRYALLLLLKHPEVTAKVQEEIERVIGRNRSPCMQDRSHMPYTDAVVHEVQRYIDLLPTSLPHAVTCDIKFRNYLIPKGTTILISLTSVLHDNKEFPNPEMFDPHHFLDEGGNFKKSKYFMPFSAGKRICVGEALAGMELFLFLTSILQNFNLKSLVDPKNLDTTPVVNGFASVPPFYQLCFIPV
Sequence of Kappa-type opioid receptor (P41145 whole entry): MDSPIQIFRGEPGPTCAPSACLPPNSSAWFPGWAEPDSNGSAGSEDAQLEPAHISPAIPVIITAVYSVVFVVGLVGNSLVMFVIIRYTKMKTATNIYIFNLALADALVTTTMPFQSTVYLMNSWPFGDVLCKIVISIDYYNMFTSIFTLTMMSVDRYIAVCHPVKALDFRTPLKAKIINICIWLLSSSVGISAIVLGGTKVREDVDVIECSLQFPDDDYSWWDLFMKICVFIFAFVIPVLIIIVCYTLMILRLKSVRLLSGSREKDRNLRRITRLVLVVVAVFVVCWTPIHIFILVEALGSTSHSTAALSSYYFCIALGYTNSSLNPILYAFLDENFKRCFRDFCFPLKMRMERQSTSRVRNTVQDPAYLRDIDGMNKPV

In the case of `Cc1onc(-c2ccccc2Cl)c1C(=O)N[C@@H]1C(=O)N2[C@@H]1SC(C)(C)[C@@H]2C(=O)O` [CLOXACILLIN], the half-maximal inhibitory concentration (IC50) entry (in series [1]; in series [2] (hek293); on Caspase-1; in series [3]; in series [4]; in [5]) was “Not Active” each time. Further, the IC50 result in [6] and in series [7] was “Not Active” each time. The Ki result in series [3], in series [4] and in series [6] was “Not Active” in each case.

On to `CCCN1C[C@H](CSC)C[C@@H]2c3cccc4[nH]cc(c34)C[C@H]21` [PERGOLIDE], for which the concentration for half-maximal inhibition (IC50) result (in series [1]; against Caspase-1; in series [3]; in [4]; against Cytochrome P450 2C9; in series [5]) was “Not Active” throughout. The IC50 entry in series [6] and in series [7] was “Not Active” each time. The Ki result (in series [3]; in series [4]; at Cytochrome P450 2C9; in series [6]) was “Not Active” throughout.

Consider `Nc1c(Br)cc(Br)cc1CN[C@H]1CC[C@H](O)CC1` [AMBROXOL], for which the concentration for half-maximal inhibition (IC50) entry (in series [1]; in series [2] (hek293); against Caspase-1; in [3]; in series [4]; in [5]) was “Not Active” each time. Moreover, the 50% inhibitory concentration (IC50) entry in series [6] and in series [7] was “Not Active” in each case. Also, the inhibitory constant (Ki) result in [3], in series [4] and in series [6] was “Not Active” each time.

On to `Cc1ccc(N(CC2=NCCN2)c2cccc(O)c2)cc1` [PHENTOLAMINE], for which the IC50 entry (in series [1]; against Caspase-1; in series [3]; in [4]; against Cytochrome P450 2C9; in [5]) was “Not Active” throughout. For the same compound, the IC50 entry in series [6] and in series [7] was “Not Active” throughout. The Ki result (in series [3]; in series [4]; on Cytochrome P450 2C9; in [6]) was “Not Active” in each case.

For `Cc1cc(C(C#N)c2ccc(Cl)cc2)c(Cl)cc1NC(=O)c1cc(I)cc(I)c1O` (centres undefined) [CLOSANTEL], the IC50 entry (in series [1]; in [2] (hek293); against Caspase-1; in series [3]; in [4]; in series [5]) was “Not Active” in each case. The IC50 result in series [6] and in series [7] was “Not Active” each time. Moreover, the Ki result in series [3], in [4] and in series [6] was “Not Active” throughout.

With `C[C@]12CC[C@@H]3c4ccc(O)cc4CC[C@H]3[C@@H]1CCC2=O` [ESTRONE], the IC50 entry (in series [1]; in [2] (hek293); against Caspase-1; in series [3]; in [4]; in series [5]) was “Not Active” throughout. In addition, the concentration for half-maximal inhibition (IC50) result in series [6] and in [7] was “Not Active” in each case. The Ki entry in series [3], in series [4] and in [6] was “Not Active” each time.

Consider `CC1(C)S[C@@H]2[C@H](NC(=O)Cc3ccccc3)C(=O)N2[C@H]1C(=O)O` [PENICILLIN G], for which the IC50 entry (in [1]; in series [2] (hek293); against Caspase-1; in [3]; in [4]; in series [5]) was “Not Active” each time. The IC50 entry in series [6] and in [7] was “Not Active” throughout. Moreover, the Ki result in series [3], in series [4] and in series [6] was “Not Active” each time.

Take `O=c1oc2ccccc2c(O)c1Cc1c(O)c2ccccc2oc1=O` [DICUMAROL]: the IC50 entry (in [1]; in [2] (hek293); on Caspase-1; in [3]; in series [4]; in series [5]) was “Not Active” in each case. Moreover, the IC50 entry in series [6] and in series [7] was “Not Active” in each case. Further, the Ki result in [3], in series [4] and in series [6] was “Not Active” throughout.

As for `CC(C)[C@@]1(NC(=O)[C@@H]2C[C@@H]3c4cccc5[nH]cc(c45)C[C@H]3N(C)C2)O[C@@]2(O)[C@@H]3CCCN3C(=O)[C@H](Cc3ccccc3)N2C1=O.CS(=O)(=O)O` [DIHYDROERGOCRISTINE MESYLATE], the 50% inhibitory concentration (IC50) entry is “Not Active” in [1]; 7.37 nM in series [2] (read-out: IC50); “Not Active” at Caspase-1; “Not Active” in [3]; “Not Active” in series [4]; “Not Active” in series [5]. Further, the IC50 entry in series [6] and in series [7] was “Not Active” each time. Further, the Ki is 3.62 nM in series [2] (read-out: Ki), “Not Active” in series [3], “Not Active” in [4] and “Not Active” in series [6].

In the case of `COc1cc2nc(N3CCN(C(=O)C4COc5ccccc5O4)CC3)nc(N)c2cc1OC` (centres undefined) [DOXAZOSIN], the IC50 entry (in series [1]; against Caspase-1; in series [3]; in series [4]; against Cytochrome P450 2C9; in series [5]) was “Not Active” throughout. Further, the IC50 result in series [6] and in series [7] was “Not Active” in each case. The Ki entry (in [3]; in series [4]; on Cytochrome P450 2C9; in [6]) was “Not Active” each time.
